# From PubChem BioAssay AID1259407 (Chemical Carcinogenesis Research Information System (CCRIS), 2018)
# The source made the active and inactive calls. No rule for the calls is given here.
# Test system: CCRIS mutagenicity, Ames/micronucleus/aberration tests
# Assay: CCRIS mutagenicity studies
# [1] = Test System: AMES SALMONELLA TYPHIMURIUM, Strain/Indicator: TA98, Metabolic Activation: NONE, Method: STANDARD PLATE
# [2] = Test System: AMES SALMONELLA TYPHIMURIUM, Strain/Indicator: TA98, Metabolic Activation: RAT, LIVER, S-9, AROCLOR 1254, Method: STANDARD PLATE
# [3] = Test System: AMES SALMONELLA TYPHIMURIUM, Strain/Indicator: TA100, Metabolic Activation: NONE, Method: STANDARD PLATE
# [4] = Test System: AMES SALMONELLA TYPHIMURIUM, Strain/Indicator: TA100, Metabolic Activation: RAT, LIVER, S-9, AROCLOR 1254, Method: STANDARD PLATE
# [5] = Test System: AMES SALMONELLA TYPHIMURIUM, Strain/Indicator: TA98, Metabolic Activation: NONE, Method: PREINCUBATION
# [6] = Test System: AMES SALMONELLA TYPHIMURIUM, Strain/Indicator: TA100, Metabolic Activation: NONE, Method: PREINCUBATION
smiles,measurement,setting,value
NCCc1cnc[nH]1,mutagenic call,"Test System: AMES SALMONELLA TYPHIMURIUM, Strain/Indicator: TA97, Metabolic Activation: NONE, Method: STANDARD PLATE",inactive; negative
same,mutagenic call,"Test System: AMES SALMONELLA TYPHIMURIUM, Strain/Indicator: TA97, Metabolic Activation: RAT, LIVER, S-9, AROCLOR 1254, Method: STANDARD PLATE",inactive; negative
same,mutagenic call,[1],inactive; negative
same,mutagenic call,[2],inactive; negative
same,mutagenic call,[3],inactive; negative
same,mutagenic call,[4],inactive; negative
same,mutagenic call,"Test System: AMES SALMONELLA TYPHIMURIUM, Strain/Indicator: TA102, Metabolic Activation: NONE, Method: STANDARD PLATE",inactive; negative
same,mutagenic call,"Test System: AMES SALMONELLA TYPHIMURIUM, Strain/Indicator: TA102, Metabolic Activation: RAT, LIVER, S-9, AROCLOR 1254, Method: STANDARD PLATE",inactive; negative
same,mutagenic call,"Test System: UDS RAT HEPATOCYTES, Strain/Indicator: THY INCORP, Metabolic Activation: NONE, Method: AUTORADIOGRAPHY",inactive; negative
CC(=O)Nc1cnc2ccccc2c1,mutagenic call,[5],inactive; negative
same,mutagenic call,"Test System: AMES SALMONELLA TYPHIMURIUM, Strain/Indicator: TA98, Metabolic Activation: RAT, LIVER, S-9, KANECHLOR 500, Method: PREINCUBATION",inactive; negative
same,mutagenic call,[6],inactive; negative
same,mutagenic call,"Test System: AMES SALMONELLA TYPHIMURIUM, Strain/Indicator: TA100, Metabolic Activation: RAT, LIVER, S-9, KANECHLOR 500, Method: PREINCUBATION",inactive; negative
Cc1c(-c2ccccc2)oc2c(C(=O)OCCN3CCCCC3)cccc2c1=O,mutagenic call,[1],inactive; negative
same,mutagenic call,"Test System: AMES SALMONELLA TYPHIMURIUM, Strain/Indicator: TA98, Metabolic Activation: S-9, Method: STANDARD PLATE",inactive; negative
same,mutagenic call,[3],inactive; negative
same,mutagenic call,"Test System: AMES SALMONELLA TYPHIMURIUM, Strain/Indicator: TA100, Metabolic Activation: S-9, Method: STANDARD PLATE",inactive; negative
same,mutagenic call,"Test System: AMES SALMONELLA TYPHIMURIUM, Strain/Indicator: TA1535, Metabolic Activation: NONE, Method: STANDARD PLATE",inactive; negative
same,mutagenic call,"Test System: AMES SALMONELLA TYPHIMURIUM, Strain/Indicator: TA1535, Metabolic Activation: S-9, Method: STANDARD PLATE",inactive; negative
same,mutagenic call,"Test System: AMES SALMONELLA TYPHIMURIUM, Strain/Indicator: TA1537, Metabolic Activation: NONE, Method: STANDARD PLATE",inactive; negative
same,mutagenic call,"Test System: AMES SALMONELLA TYPHIMURIUM, Strain/Indicator: TA1537, Metabolic Activation: S-9, Method: STANDARD PLATE",inactive; negative
same,mutagenic call,"Test System: AMES SALMONELLA TYPHIMURIUM, Strain/Indicator: TA1538, Metabolic Activation: NONE, Method: STANDARD PLATE",inactive; negative
same,mutagenic call,"Test System: AMES SALMONELLA TYPHIMURIUM, Strain/Indicator: TA1538, Metabolic Activation: S-9, Method: STANDARD PLATE",inactive; negative
NC(N)=O,mutagenic call,[5],inactive; negative
same,mutagenic call,"Test System: AMES SALMONELLA TYPHIMURIUM, Strain/Indicator: TA98, Metabolic Activation: RAT, LIVER, S-9, KC 500, Method: PREINCUBATION",inactive; negative
same,mutagenic call,[6],inactive; negative
same,mutagenic call,"Test System: AMES SALMONELLA TYPHIMURIUM, Strain/Indicator: TA100, Metabolic Activation: RAT, LIVER, S-9, KC 500, Method: PREINCUBATION",inactive; negative
same,mutagenic call,"Test System: AMES SALMONELLA TYPHIMURIUM, Strain/Indicator: TA1535, Metabolic Activation: NONE, Method: PREINCUBATION",inactive; negative
same,mutagenic call,"Test System: AMES SALMONELLA TYPHIMURIUM, Strain/Indicator: TA1535, Metabolic Activation: RAT, LIVER, S-9, KC 500, Method: PREINCUBATION",inactive; negative
same,mutagenic call,"Test System: AMES SALMONELLA TYPHIMURIUM, Strain/Indicator: TA1537, Metabolic Activation: NONE, Method: PREINCUBATION",inactive; negative
same,mutagenic call,"Test System: AMES SALMONELLA TYPHIMURIUM, Strain/Indicator: TA1537, Metabolic Activation: RAT, LIVER, S-9, KC 500, Method: PREINCUBATION",inactive; negative
same,mutagenic call,"Test System: AMES SALMONELLA TYPHIMURIUM, Strain/Indicator: TA1538, Metabolic Activation: NONE, Method: PREINCUBATION",inactive; negative
same,mutagenic call,"Test System: AMES SALMONELLA TYPHIMURIUM, Strain/Indicator: TA1538, Metabolic Activation: RAT, LIVER, S-9, KC 500, Method: PREINCUBATION",inactive; negative
same,mutagenic call,"Test System: E. COLI, Strain/Indicator: WP2 UVRA, Metabolic Activation: NONE, Method: PREINCUBATION",inactive; negative
same,mutagenic call,"Test System: E. COLI, Strain/Indicator: WP2 UVRA, Metabolic Activation: RAT, LIVER, S-9, KC 500, Method: PREINCUBATION",inactive; negative
same,mutagenic call,"Test System: MOUSE LYMPHOMA, Strain/Indicator: L5178Y (TK+/TK-), Metabolic Activation: NONE, Method: SUSPENSION/PLATE",active; positive
CN1CCN(C)CC1,mutagenic call,[5],inactive; negative
same,mutagenic call,"Test System: AMES SALMONELLA TYPHIMURIUM, Strain/Indicator: TA98, Metabolic Activation: RAT, LIVER, S-9, PCB, Method: PREINCUBATION",inactive; negative
same,mutagenic call,[6],inactive; negative
same,mutagenic call,"Test System: AMES SALMONELLA TYPHIMURIUM, Strain/Indicator: TA100, Metabolic Activation: RAT, LIVER, S-9, PCB, Method: PREINCUBATION",inactive; negative
Cc1ccc(N(O)C=O)cc1,mutagenic call,[1],inactive; negative
same,mutagenic call,[2],active; positive
same,mutagenic call,[3],inactive; negative
same,mutagenic call,[4],active; positive
CCN(CC)c1ccc(N=Nc2sc(C=O)c(Cl)c2C#N)c(NC(=O)COC)c1,mutagenic call,"End Point: IN VITRO CHROMOSOMAL ABERRATIONS, Test System: CHL CELLS, Metabolic Activation: RAT, LIVER, S-9, SODIUM PHENOBARBITAL AND 5,6-BENZOFLAVONE",inactive; negative; precipitation occurred at all doses
CCC/C=C/C=O,mutagenic call,"Test System: AMES SALMONELLA TYPHIMURIUM, Strain/Indicator: TA97A, Metabolic Activation: NONE, Method: DESICCATOR",inactive; negative
same,mutagenic call,"Test System: AMES SALMONELLA TYPHIMURIUM, Strain/Indicator: TA97A, Metabolic Activation: S-9, Method: DESICCATOR",inactive; negative
same,mutagenic call,"Test System: AMES SALMONELLA TYPHIMURIUM, Strain/Indicator: TA98, Metabolic Activation: NONE, Method: DESICCATOR",inactive; negative
same,mutagenic call,"Test System: AMES SALMONELLA TYPHIMURIUM, Strain/Indicator: TA100, Metabolic Activation: NONE, Method: DESICCATOR",inactive; negative
same,mutagenic call,[6],inactive; negative
same,mutagenic call,"Test System: AMES SALMONELLA TYPHIMURIUM, Strain/Indicator: TA100, Metabolic Activation: NONE, Method: PREINCUBATION (THREEFOLD CELL DENSITY)",active; positive
same,mutagenic call,"Test System: AMES SALMONELLA TYPHIMURIUM, Strain/Indicator: TA100, Metabolic Activation: RAT, LIVER, S-9, AROCLOR 1254, Method: PREINCUBATION",inactive; negative
same,mutagenic call,"Test System: AMES SALMONELLA TYPHIMURIUM, Strain/Indicator: TA100, Metabolic Activation: RAT, LIVER, S-9, AROCLOR 1254, Method: PREINCUBATION (THREEFOLD CELL DENSITY)",active; positive
same,mutagenic call,"Test System: AMES SALMONELLA TYPHIMURIUM, Strain/Indicator: TA100, Metabolic Activation: S-9, Method: DESICCATOR",inactive; negative
same,mutagenic call,"Test System: AMES SALMONELLA TYPHIMURIUM, Strain/Indicator: TA102, Metabolic Activation: S-9, Method: DESICCATOR",inactive; negative
same,mutagenic call,"Test System: AMES SALMONELLA TYPHIMURIUM, Strain/Indicator: TA104, Metabolic Activation: NONE, Method: DESICCATOR",inactive; negative
same,mutagenic call,"Test System: AMES SALMONELLA TYPHIMURIUM, Strain/Indicator: TA104, Metabolic Activation: NONE, Method: PREINCUBATION",active; positive
same,mutagenic call,"Test System: AMES SALMONELLA TYPHIMURIUM, Strain/Indicator: TA104, Metabolic Activation: S-9, Method: DESICCATOR",inactive; negative
same,mutagenic call,"Test System: CHINESE HAMSTER V-79, Strain/Indicator: V-79/6-THIOGUANINE, Metabolic Activation: NONE, Method: STANDARD PLATE",active; positive
same,mutagenic call,"Test System: CHINESE HAMSTER V-79, Strain/Indicator: V-79/OUABAIN, Metabolic Activation: NONE, Method: STANDARD PLATE",inactive; negative
